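48-hour exposure; five concentrations; linearly interpolated endpoints. GI50 is the concentration that inhibits growth by half.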 Activity calls are given as the source filed them. Cut-off read from the data, not from the text of the source: active = GI50 up to about 1.1 µM and inactive = higher.
Key:
Assay in all cases: DTP human tumour cell line panel, 48 h
A549 = test system: A549
ACHN = test system: ACHN
COLO 205 = test system: COLO 205
EKVX = test system: EKVX
HCT-116 = test system: HCT-116
HCT-15 = test system: HCT-15
HL-60 = test system: HL-60
K562 = test system: K562
KM12 = test system: KM12
LOX IMVI = test system: LOX IMVI
M14 = test system: M14
MCF7 = test system: MCF7
MDA-MB-231 = test system: MDA-MB-231
NCI-H226 = test system: NCI-H226
NCI-H460 = test system: NCI-H460
NCI-H522 = test system: NCI-H522
PC-3 = test system: PC-3
RXF 393 = test system: RXF 393
SNB-19 = test system: SNB-19
SR = test system: SR

SMILES | GI50 (A549) | GI50 (ACHN) | GI50 (COLO 205) | GI50 (EKVX) | GI50 (HCT-116) | GI50 (HCT-15) | GI50 (HL-60) | GI50 (K562) | GI50 (KM12) | GI50 (LOX IMVI) | GI50 (M14) | GI50 (MCF7) | GI50 (MDA-MB-231) | GI50 (NCI-H226) | GI50 (NCI-H460) | GI50 (NCI-H522) | GI50 (PC-3) | GI50 (RXF 393) | GI50 (SNB-19) | GI50 (SR)
CN(C)c1ccc(/C=c2\c3ccccc3n3c2cc(-c2ccccc2)[n+]3C)cc1 | 0.201 µM (active) | 0.368 µM (active) | 0.0143 µM (active) | 0.32 µM (active) | 0.0853 µM (active) | 1.2 µM | 0.0283 µM (active) | 0.07 µM (active) | 0.185 µM (active) | 0.118 µM (active) | 0.157 µM (active) | 0.124 µM (active) | 0.222 µM (active) | < 0.01 µM (active) | 0.103 µM (active) | 0.0193 µM (active) | 0.0726 µM (active) | 0.547 µM (active) | 0.0771 µM (active) | 0.16 µM (active)
O=c1oc2ccc3ccccc3c2cc1-c1nc2ccccc2o1 | 28.2 µM (inactive) | 13.9 µM (inactive) | 53.5 µM (inactive) | 20.6 µM (inactive) | 21.7 µM (inactive) | 36.6 µM | 40.6 µM (inactive) | 58.3 µM (inactive) | 27.3 µM (inactive) | 16.6 µM (inactive) | 33.2 µM (inactive) | 1.26 µM (inactive) | 16.8 µM (inactive) | 22.5 µM (inactive) | 27.5 µM (inactive) | 21.3 µM (inactive) | 28.1 µM (inactive) | 16.1 µM (inactive) | 19.7 µM (inactive) | 16.2 µM (inactive)
O=C1C=CC(=NNc2ccccc2)C=CC1=O | 10.7 µM (inactive) | 8.05 µM (inactive) | 13.5 µM (inactive) | 25.9 µM (inactive) | 13.3 µM (inactive) | 5.83 µM | 14 µM (inactive) | 7.64 µM (inactive) | 12.4 µM (inactive) | 5.09 µM (inactive) | 12.9 µM (inactive) | 19.3 µM (inactive) | 14.9 µM (inactive) | 11.7 µM (inactive) | 11.3 µM (inactive) | 13.1 µM (inactive) | 8.67 µM (inactive) | 99.8 µM (inactive) | 18.9 µM (inactive) | 1.72 µM (inactive)
COc1c2c(c(OC)c3c1c(=O)c1ccccc1n3C)OCO2 | 44.5 µM (inactive) | 49.2 µM (inactive) | 7.66 µM (inactive) | 35.4 µM (inactive) | 6.15 µM (inactive) | 26.1 µM | 3.18 µM (inactive) | 0.703 µM (active) | 3.25 µM (inactive) | 5.48 µM (inactive) | 9.51 µM (inactive) | 4.2 µM (inactive) | 19.3 µM (inactive) | > 50.4 µM (inactive) | 8.49 µM (inactive) | 2.23 µM (inactive) | 19.7 µM (inactive) | 6.07 µM (inactive) | 26.5 µM (inactive) | 3.69 µM (inactive)
CN1CCN(c2n[nH]c(=O)c3c2nnn3C2CCCCC2)CC1 | > 100 µM (inactive) | > 100 µM (inactive) | > 100 µM (inactive) | > 100 µM (inactive) | > 100 µM (inactive) | > 100 µM | > 100 µM (inactive) | > 100 µM (inactive) | > 100 µM (inactive) | > 100 µM (inactive) | > 100 µM (inactive) | > 100 µM (inactive) | > 100 µM (inactive) | > 100 µM (inactive) | > 100 µM (inactive) | > 100 µM (inactive) | > 100 µM (inactive) | > 100 µM (inactive) | > 100 µM (inactive) | > 100 µM (inactive)
c1ccc(/C(=N/Nc2ccccn2)c2cccnn2)cc1 | 2.43 µM (inactive) | 0.998 µM (active) | 0.741 µM (active) | 1.74 µM (inactive) | 2.28 µM (inactive) | 0.824 µM | 3.61 µM (inactive) | 1.47 µM (inactive) | 2.72 µM (inactive) | 2.07 µM (inactive) | 1.45 µM (inactive) | 3.43 µM (inactive) | 2.57 µM (inactive) | 1.07 µM (active) | 1.34 µM (inactive) | 0.441 µM (active) | 5.86 µM (inactive) | 15.7 µM (inactive) | 10.3 µM (inactive) | 0.522 µM (active)
O=C(N/N=C\c1cccc2ccccc12)Nc1ccc([N+](=O)[O-])cc1 | 9.71 µM (inactive) | 11.6 µM (inactive) | 17.1 µM (inactive) | > 39.4 µM (inactive) | 6.28 µM (inactive) | 13.9 µM | > 40.6 µM (inactive) | 5.58 µM (inactive) | 10.9 µM (inactive) | 21.6 µM (inactive) | 28.1 µM (inactive) | 9.51 µM (inactive) | 30.7 µM (inactive) | 23.3 µM (inactive) | 10.9 µM (inactive) | 5.66 µM (inactive) | 6.95 µM (inactive) | 7.13 µM (inactive) | 21.4 µM (inactive) | > 27.6 µM (inactive)
c1ccc2cc3c(NC4=NCCO4)cccc3cc2c1 | > 100 µM (inactive) | 68.1 µM (inactive) | 35.9 µM (inactive) | 76.2 µM (inactive) | 50 µM (inactive) | > 100 µM | 25.9 µM (inactive) | 37.2 µM (inactive) | 44.7 µM (inactive) | 29.8 µM (inactive) | 34.3 µM (inactive) | 68.7 µM (inactive) | 25.2 µM (inactive) | 52.2 µM (inactive) | 29 µM (inactive) | > 100 µM (inactive) | 45.1 µM (inactive) | > 100 µM (inactive) | 78.7 µM (inactive) | 36 µM (inactive)
CC1=NN(C(=O)c2ccccc2O)C(=O)/C1=C/c1cccc([N+](=O)[O-])c1 | 0.448 µM (active) | 0.528 µM (active) | 29 µM (inactive) | 3.99 µM (inactive) | 0.463 µM (active) | 4.05 µM | 1.22 µM (inactive) | 0.364 µM (active) | 0.703 µM (active) | 0.695 µM (active) | 2.37 µM (inactive) | 2.52 µM (inactive) | 41.8 µM (inactive) | 0.274 µM (active) | 0.658 µM (active) | 3.99 µM (inactive) | 7.06 µM (inactive) | 0.189 µM (active) | 0.385 µM (active) | > 100 µM (inactive)
O=[N+]([O-])c1cc(-[n+]2cc([O-])on2)ccc1F | 17 µM (inactive) | 17 µM (inactive) | 17.7 µM (inactive) | 18 µM (inactive) | 15.3 µM (inactive) | 20.3 µM | 22.6 µM (inactive) | 34.4 µM (inactive) | 17.2 µM (inactive) | 14.9 µM (inactive) | 16.1 µM (inactive) | 12.8 µM (inactive) | 18.7 µM (inactive) | 23.4 µM (inactive) | 18.5 µM (inactive) | 9.02 µM (inactive) | 18.4 µM (inactive) | 14.1 µM (inactive) | 7.82 µM (inactive) | 6.24 µM (inactive)
CC[C@H](C)C(=O)O[C@H]1CCC=C2C=C[C@H](C)[C@H](CC[C@@H]3C[C@@H](O)CC(=O)O3)[C@H]21 [MEVASTATIN] | 27.4 µM (inactive) | 3.88 µM (inactive) | 12.9 µM (inactive) | > 38.9 µM (inactive) | 17.1 µM (inactive) | 4.06 µM | 46.6 µM (inactive) | 30.1 µM (inactive) | 37 µM (inactive) | 1.97 µM (inactive) | 10 µM (inactive) | 20.3 µM (inactive) | 3.85 µM (inactive) | 25.4 µM (inactive) | 28 µM (inactive) | 2.85 µM (inactive) | 2.26 µM (inactive) | 14.3 µM (inactive) | 16.4 µM (inactive) | 8.73 µM (inactive)
C=C(C)[C@@H]1CC=C(CO)CC1 [PERILLYL ALCOHOL] | 126 µM (inactive) | 121 µM (inactive) | 199 µM (inactive) | 617 µM (inactive) | 96.2 µM (inactive) | 167 µM | 50.1 µM (inactive) | 30.5 µM (inactive) | 316 µM (inactive) | 195 µM (inactive) | 710 µM (inactive) | > 10 µM (inactive) | > 10 µM (inactive) | 251 µM (inactive) | 454 µM (inactive) | 344 µM (inactive) | > 10 µM (inactive) | 93.8 µM (inactive) | 348 µM (inactive) | 152 µM (inactive)

Reference: ChEMBL document CHEMBL1201862, “PubChem BioAssay data set” (2004)
